Reference: patent publication US20130324412A1, “N-ALKOXYAMIDES OF 6-(SUBSTITUTED PHENYL)-4-AMINOPICOLINATES AND 2-(SUBSTITUTED PHENYL)-6-AMINO-4-PYRIMIDINECARBOXYLATES AND THEIR USE AS SELECTIVE HERBICIDES FOR CROPS” (DOW AGROSCIENCES LLC, priority 2009, published 2013)

Assays:
Type in all cases: in vivo
corn (Zea mays) = test: General postemergence herbicidal activity, corn; settings: post-emergence, 336 h, postemergence, after 14 d, 0 = no injury, 100 = complete kill, read-out: ZEAMX % Visual Injury; for plant injury at 35 g/ha: 35 g ai/ha; for plant injury at 70 g/ha: 70 g ai/ha; for plant injury at 140 g/ha: 140 g ai/ha
Experimental: (§1) Seeds or nutlets of the desired test plant species were planted in Sun Gro MetroMix® 360 planting mixture, which typically has a pH of 6.0 to 6.8 and an organic matter content of about 30 percent, in plastic pots with a surface area of 64 square centimeters (cm^2). When required to ensure good germination and healthy plants, a fungicide treatment and/or other chemical or physical treatment was applied. The plants were grown for 7-21 days (d) in a greenhouse with an approximate 15-hour (h) photoperiod which was maintained at about 23-29° C. during the day and 22-28° C. during the night. Nutrients and water were added on a regular basis and supplemental lighting was provided with overhead metal halide 1000-Watt lamps as necessary. The plants were employed for testing when they reached the first or second true leaf stage.
(§2) A weighed amount, determined by the highest rate to be tested, of each test compound was dissolved in 4 mL of a 97:3 volume per volume (v/v) mixture of acetone and dimethyl sulfoxide (DMSO) to obtain concentrated stock solutions. […] The concentrated stock solutions obtained were diluted with 20 mL of an aqueous mixture containing acetone, water, isopropyl alcohol, DMSO, Atplus 411F crop oil concentrate, and Triton X-155 surfactant in a 48.5:39:10:1.5:1.0:0.02 v/v ratio to obtain spray solutions containing the highest application rates. Additional application rates were obtained by serial dilution of 12 mL of the high rate solution into a solution containing 2 mL of 97:3 v/v mixture of acetone and DMSO and 10 mL of an aqueous mixture containing acetone, water, isopropyl alcohol, DMSO, Atplus 411F crop oil concentrate, and Triton X-155 surfactant in a 48.5:39:10:1.5:1.0:0.02 v/v ratio to obtain ½×, ¼×, ⅛× and 1/16× rates of the high rate. Compound requirements are based upon a 12 mL application volume at a rate of 187 liters per hectare (L/ha). Formulated compounds were applied to the plant material with an overhead Mandel track sprayer equipped with 8002E nozzles calibrated to deliver 187 L/ha over an application area of 0.503 square meters (m^2) at a spray height of 18 inches (43 cm) above the average plant canopy height. Control plants were sprayed in the same manner with the solvent blank.
(§3) The treated plants and control plants were placed in a greenhouse as described above and watered by sub-irrigation to prevent wash-off of the test compounds. After 14 d, the condition of the test plants as compared with that of the untreated plants was determined visually and scored on a scale of 0 to 100 percent where 0 corresponds to no injury and 100 corresponds to complete kill.

[1] = system: velvetleaf (Abutilon theophrasti); test: General postemergence herbicidal activity, velvetleaf; settings: post-emergence, 336 h, postemergence, after 14 d, 0 = no injury, 100 = complete kill, read-out: ABUTH % Visual Injury; for pest or weed control at 35 g/ha: 35 g ai/ha; for pest or weed control at 70 g/ha: 70 g ai/ha; for pest or weed control at 140 g/ha: 140 g ai/ha
Experimental: as §1, §2, §3

[2] = system: lambsquarters (Chenopodium album); test: General postemergence herbicidal activity, lambsquarters; settings: post-emergence, 336 h, postemergence, after 14 d, 0 = no injury, 100 = complete kill, read-out: CHEAL % Visual Injury; for pest or weed control at 35 g/ha: 35 g ai/ha; for pest or weed control at 70 g/ha: 70 g ai/ha; for pest or weed control at 140 g/ha: 140 g ai/ha
Experimental: as §1, §2, §3

[3] = system: wild buckwheat (Polygonum convululus); test: General postemergence herbicidal activity, wild buckwheat; settings: post-emergence, 336 h, postemergence, after 14 d, 0 = no injury, 100 = complete kill, read-out: POLCO % Visual Injury; for pest or weed control at 35 g/ha: 35 g ai/ha; for pest or weed control at 70 g/ha: 70 g ai/ha; for pest or weed control at 140 g/ha: 140 g ai/ha
Experimental: as §1, §2, §3

COc1c(Cl)ccc(-c2cc(N)c(Cl)c(C(=O)NOCc3ccccc3)n2)c1F [Compound 5, 4-Amino-N-(benzyloxy)-3-chloro-6-(4-chloro-2-fluoro-3-methoxyphenyl)picolinamide] was tested. Which plant injury at 35 g/ha (corn (Zea mays)) did it give?
The plant injury at 35 g/ha was 0%.

And the pest or weed control at 35 g/ha [1]?
The pest or weed control at 35 g/ha was 100%.

And the pest or weed control at 35 g/ha [2]?
Its pest or weed control at 35 g/ha is 100%.

What about the pest or weed control at 35 g/ha [3] of the same compound?
Its pest or weed control at 35 g/ha is 100%.

With COc1c(Cl)ccc(-c2cc(N)c(Cl)c(C(=O)N(C)OC)n2)c1F [Compound 6, 4-Amino-3-chloro-6-(4-chloro-2-fluoro-3-methoxyphenyl)-N-methoxy-N-methyl-picolinamide] as the compound, how does the plant injury at 70 g/ha (corn (Zea mays)) read?
Its plant injury at 70 g/ha is 0%.

And the pest or weed control at 70 g/ha [1]?
The pest or weed control at 70 g/ha was 100%.

What about the pest or weed control at 70 g/ha [2] of the same compound?
Its pest or weed control at 70 g/ha is 100%.

And the pest or weed control at 70 g/ha [3]?
The pest or weed control at 70 g/ha was 100%.

Which plant injury at 35 g/ha (corn (Zea mays)) does the source give for CCCONC(=O)c1nc(-c2ccc(Cl)c(OC)c2F)cc(N)c1Cl [Compound 7, 4-Amino-3-chloro-6-(4-chloro-2-fluoro-3-methoxyphenyl)-N-propoxypicolinamide] here?
The plant injury at 35 g/ha was 25%.

And the pest or weed control at 35 g/ha [1]?
The pest or weed control at 35 g/ha was 100%.

And the pest or weed control at 35 g/ha [2]?
The pest or weed control at 35 g/ha was 100%.

What about the pest or weed control at 35 g/ha [3] of the same compound?
The pest or weed control at 35 g/ha was 100%.

With COc1c(Cl)ccc(-c2cc(N)c(Cl)c(C(=O)NOC(C)C)n2)c1F [Compound 8, 4-Amino-3-chloro-6-(4-chloro-2-fluoro-3-methoxyphenyl)-N-isopropoxypicolinamide] as the compound, how does the plant injury at 70 g/ha (corn (Zea mays)) read?
The plant injury at 70 g/ha was 0%.

And the pest or weed control at 70 g/ha [1]?
Its pest or weed control at 70 g/ha is 100%.

What about the pest or weed control at 70 g/ha [2] of the same compound?
The pest or weed control at 70 g/ha was 100%.

And the pest or weed control at 70 g/ha [3]?
Its pest or weed control at 70 g/ha is 100%.

What does the source list for C=CCON(C(C)=O)C(=O)c1nc(-c2ccc(Cl)c(OC)c2F)nc(N)c1C=C [Compound 9, N-Acetyl-N-(2-propenyloxy)-6-amino-2-(4-chloro-2-fluoro-3-methoxyphenyl)-5-vinylpyrimidine-4-carboxamide]?
plant injury at 140 g/ha (corn (Zea mays)): 25%; pest or weed control at 140 g/ha [1]: 95%; pest or weed control at 140 g/ha [2]: 100%; pest or weed control at 140 g/ha [3]: 80%

With C=CCONC(=O)c1nc(-c2ccc(Cl)c(OC)c2F)nc(N)c1C=C [Compound 10, N-(2-Propenyloxy)-6-amino-2-(4-chloro-2-fluoro-3-methoxyphenyl)-5-vinylpyrimidine-4-carboxamide] as the compound, how does the plant injury at 140 g/ha (corn (Zea mays)) read?
Its plant injury at 140 g/ha is 15%.

What about the pest or weed control at 140 g/ha [1] of the same compound?
Its pest or weed control at 140 g/ha is 100%.

What about the pest or weed control at 140 g/ha [2] of the same compound?
Its pest or weed control at 140 g/ha is 85%.

And the pest or weed control at 140 g/ha [3]?
The pest or weed control at 140 g/ha was 15%.

Which plant injury at 140 g/ha (corn (Zea mays)) does the source give for C=CCONC(=O)c1nc(C2CC2)nc(N)c1Cl [Compound 11, N-(2-Propenyloxy)-6-amino-5-chloro-2-cyclopropylpyrimidine-4-carboxamide] here?
Its plant injury at 140 g/ha is 20%.

And the pest or weed control at 140 g/ha [1]?
The pest or weed control at 140 g/ha was 40%.

And the pest or weed control at 140 g/ha [2]?
The pest or weed control at 140 g/ha was 100%.

And the pest or weed control at 140 g/ha [3]?
The pest or weed control at 140 g/ha was 100%.

COc1c(Cl)ccc(-c2cc(N)c(Cl)c(C(=O)NOC3CCCCO3)n2)c1F (centres unmarked) [Compound 12, 4-amino-3-chloro-6-(4-chloro-2-fluoro-3-methoxyphenyl)-N-(tetrahydro-2H-pyran-2-yloxy)picolinamide] was tested. Which plant injury at 70 g/ha (corn (Zea mays)) did it give?
Its plant injury at 70 g/ha is 0%.

And the pest or weed control at 70 g/ha [1]?
The pest or weed control at 70 g/ha was 100%.

What about the pest or weed control at 70 g/ha [2] of the same compound?
Its pest or weed control at 70 g/ha is 100%.

What about the pest or weed control at 70 g/ha [3] of the same compound?
The pest or weed control at 70 g/ha was 100%.

For C=C(C)CONC(=O)c1nc(-c2ccc(Cl)c(OC)c2F)cc(N)c1Cl [Compound 28, 4-Amino-3-chloro-6-(4-chloro-2-fluoro-3-methoxyphenyl)-N-(2-methyl-2-propenyl-oxy)picolinamide], which plant injury at 35 g/ha (corn (Zea mays)) is on record?
Its plant injury at 35 g/ha is 25%.

And the pest or weed control at 35 g/ha [1]?
The pest or weed control at 35 g/ha was 100%.

What about the pest or weed control at 35 g/ha [2] of the same compound?
The pest or weed control at 35 g/ha was 100%.

For COc1c(Cl)ccc(-c2cc(N)c(Cl)c(C(=O)NOCc3cncs3)n2)c1F [Compound 36, 4-Amino-3-chloro-6-(4-chloro-2-fluoro-3-methoxyphenyl)-N-(thiazol-5-yl-methoxy)picolinamide], which plant injury at 35 g/ha (corn (Zea mays)) is on record?
Its plant injury at 35 g/ha is 25%.

What about the pest or weed control at 35 g/ha [1] of the same compound?
The pest or weed control at 35 g/ha was 100%.

And the pest or weed control at 35 g/ha [2]?
Its pest or weed control at 35 g/ha is 100%.

What does the source list for COc1c(Cl)ccc(-c2cc(N)c(Cl)c(C(=O)NOCc3nnsc3Cl)n2)c1F [Compound 47, 4-Amino-3-chloro-N-((5-chloro-1,2,3-thiadiazol-4-yl)methoxy)-6-(4-chloro-2-fluoro-3-methoxyphenyl)picolinamide]?
plant injury at 17.5 g/ha (corn (Zea mays); 17.5 g ai/ha): 35%; pest or weed control at 17.5 g/ha ([1]; 17.5 g ai/ha): 100%; pest or weed control at 17.5 g/ha ([2]; 17.5 g ai/ha): 100%
